Experiments:
Experiment in all cases: KINOMEscan competition binding
Details in all cases: compound 10.0 µM
DAPK1 (human) = DAPK1 (human) (UniProt P53355)
BMPR1B (human) = BMPR1B (human) (UniProt O00238)
TNIK (human) = TNIK (human) (UniProt Q9UKE5)
MKNK2 (human) = MKNK2 (human) (UniProt Q9HBH9)
ACVR1 (human) = ACVR1 (human) (UniProt Q04771)
MAP4K4 (human) = MAP4K4 (human) (UniProt O95819)
MELK (human) = MELK (human) (UniProt Q14680)
CAMKK1 (human) = CAMKK1 (human) (UniProt Q8N5S9)
PRKD3 (human) = PRKD3 (human) (UniProt O94806)
GSK3A (human) = GSK3A (human) (UniProt P49840)
AURKB (human) = AURKB (human) (UniProt Q96GD4)
[1] = test system: FLT3 (human), P36888 [ITD]
MAP3K5 (human) = MAP3K5 (human) (UniProt Q99683)
STK16 (human) = STK16 (human) (UniProt O75716)
PLK4 (human) = PLK4 (human) (UniProt O00444)
RPS6KA1 KD2 (human) = RPS6KA1 KD2 (human) (UniProt Q15418)
STK24 (human) = STK24 (human) (UniProt Q9Y6E0)
RPS6KA5 KD2 (human) = RPS6KA5 KD2 (human) (UniProt O75582)
STK17B (human) = STK17B (human) (UniProt O94768)
RIOK3 (human) = RIOK3 (human) (UniProt O14730)
[2] = test system: EIF2AK4 KD2 (human), Q9P2K8 [S808G]
RIOK2 (human) = RIOK2 (human) (UniProt Q9BVS4)
SRPK3 (human) = SRPK3 (human) (UniProt Q9UPE1)
Sequence of SRPK3 (human) (Q9UPE1 whole entry, looked up): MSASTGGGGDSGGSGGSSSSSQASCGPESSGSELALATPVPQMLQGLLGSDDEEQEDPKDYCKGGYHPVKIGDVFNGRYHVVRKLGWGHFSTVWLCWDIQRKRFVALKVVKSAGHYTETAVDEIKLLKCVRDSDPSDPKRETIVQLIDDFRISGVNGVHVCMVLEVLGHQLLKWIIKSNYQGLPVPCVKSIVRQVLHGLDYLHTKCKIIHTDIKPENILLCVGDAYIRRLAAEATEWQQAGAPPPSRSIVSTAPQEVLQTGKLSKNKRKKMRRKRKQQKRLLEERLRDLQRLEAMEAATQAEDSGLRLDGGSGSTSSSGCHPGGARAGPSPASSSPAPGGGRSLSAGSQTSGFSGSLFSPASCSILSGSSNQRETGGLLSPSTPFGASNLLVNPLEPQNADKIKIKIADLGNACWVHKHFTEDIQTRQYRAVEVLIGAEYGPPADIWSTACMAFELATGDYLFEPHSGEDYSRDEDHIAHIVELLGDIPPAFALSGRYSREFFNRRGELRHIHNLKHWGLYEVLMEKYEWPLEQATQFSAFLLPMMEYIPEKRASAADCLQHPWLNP

CLK1 (human) = CLK1 (human) (UniProt P49759)
[3] = test system: FLT3 (human), P36888 [K663Q]
CLK4 (human) = CLK4 (human) (UniProt Q9HAZ1)
CAMKK2 (human) = CAMKK2 (human) (UniProt Q96RR4)
CSNK1G3 (human) = CSNK1G3 (human) (UniProt Q9Y6M4)
PIK3CG (human) = PIK3CG (human) (UniProt P48736)
[4] = test system: EGFR (human), P00533 [G719S]
FLT3 (human) = FLT3 (human) (UniProt P36888)
MYLK3 (human) = MYLK3 (human) (UniProt Q32MK0)
CIT (human) = CIT (human) (UniProt O14578)
RIPK4 (human) = RIPK4 (human) (UniProt P57078)
Sequence of RIPK4 (human) (P57078 whole entry, looked up): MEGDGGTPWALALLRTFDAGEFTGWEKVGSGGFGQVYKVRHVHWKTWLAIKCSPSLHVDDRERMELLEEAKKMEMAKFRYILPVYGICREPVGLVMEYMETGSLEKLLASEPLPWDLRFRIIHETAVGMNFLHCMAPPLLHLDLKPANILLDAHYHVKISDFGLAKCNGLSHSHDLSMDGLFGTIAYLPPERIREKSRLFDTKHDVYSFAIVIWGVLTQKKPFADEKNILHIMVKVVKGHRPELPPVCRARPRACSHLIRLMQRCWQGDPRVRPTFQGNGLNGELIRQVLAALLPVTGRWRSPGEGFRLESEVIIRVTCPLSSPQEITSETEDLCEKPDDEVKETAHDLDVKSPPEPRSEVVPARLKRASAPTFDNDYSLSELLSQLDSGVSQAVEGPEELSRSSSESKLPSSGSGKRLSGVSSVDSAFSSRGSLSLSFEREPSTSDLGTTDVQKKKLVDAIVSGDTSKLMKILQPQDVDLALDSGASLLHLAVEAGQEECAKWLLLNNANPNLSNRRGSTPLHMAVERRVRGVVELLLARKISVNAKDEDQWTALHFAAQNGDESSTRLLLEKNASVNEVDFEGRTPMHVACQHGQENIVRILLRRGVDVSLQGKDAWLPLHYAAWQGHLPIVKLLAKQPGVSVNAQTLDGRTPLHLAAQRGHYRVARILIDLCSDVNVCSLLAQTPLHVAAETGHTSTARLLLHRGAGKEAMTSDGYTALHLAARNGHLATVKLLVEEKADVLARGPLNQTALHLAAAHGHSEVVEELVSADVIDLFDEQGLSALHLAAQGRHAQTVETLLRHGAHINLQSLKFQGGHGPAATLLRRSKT

CSNK2A2 (human) = CSNK2A2 (human) (UniProt P19784)
DYRK1B (human) = DYRK1B (human) (UniProt Q9Y463)
BRSK2 (human) = BRSK2 (human) (UniProt Q8IWQ3)
MAP3K7 (human) = MAP3K7 (human) (UniProt O43318)
Sequence of MAP3K7 (human) (O43318 whole entry, looked up): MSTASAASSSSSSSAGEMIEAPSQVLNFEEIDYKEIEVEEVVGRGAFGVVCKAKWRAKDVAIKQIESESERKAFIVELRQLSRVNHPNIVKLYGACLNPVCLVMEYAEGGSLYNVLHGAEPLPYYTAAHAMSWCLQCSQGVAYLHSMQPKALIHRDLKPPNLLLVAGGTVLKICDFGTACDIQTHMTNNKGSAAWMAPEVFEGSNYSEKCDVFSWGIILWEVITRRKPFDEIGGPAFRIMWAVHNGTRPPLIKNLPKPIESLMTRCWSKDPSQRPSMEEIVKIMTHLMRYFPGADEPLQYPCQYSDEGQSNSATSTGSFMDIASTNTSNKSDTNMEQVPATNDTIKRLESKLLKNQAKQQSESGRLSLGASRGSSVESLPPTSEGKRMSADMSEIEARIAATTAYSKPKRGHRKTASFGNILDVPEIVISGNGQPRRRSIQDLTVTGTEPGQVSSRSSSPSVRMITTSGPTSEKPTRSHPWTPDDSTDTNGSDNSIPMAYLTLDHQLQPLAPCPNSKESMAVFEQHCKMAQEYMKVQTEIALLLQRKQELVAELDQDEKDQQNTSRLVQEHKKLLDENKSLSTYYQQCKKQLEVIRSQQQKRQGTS

KIT (human) = KIT (human) (UniProt P10721)
GAK (human) = GAK (human) (UniProt O14976)
CSNK1D (human) = CSNK1D (human) (UniProt P48730)
Sequence of CSNK1D (human) (P48730 whole entry, looked up): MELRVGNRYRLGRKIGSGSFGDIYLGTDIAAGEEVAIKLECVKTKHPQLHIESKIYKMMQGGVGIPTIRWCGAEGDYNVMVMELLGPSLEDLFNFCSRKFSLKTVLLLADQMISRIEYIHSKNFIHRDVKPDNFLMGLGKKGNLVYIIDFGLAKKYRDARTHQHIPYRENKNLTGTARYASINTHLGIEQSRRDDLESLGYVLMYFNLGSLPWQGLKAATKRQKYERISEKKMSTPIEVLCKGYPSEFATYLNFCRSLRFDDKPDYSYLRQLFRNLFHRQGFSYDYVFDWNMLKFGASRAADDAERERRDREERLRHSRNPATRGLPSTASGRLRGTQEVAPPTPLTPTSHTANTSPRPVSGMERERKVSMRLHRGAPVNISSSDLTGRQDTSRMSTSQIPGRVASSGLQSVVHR

PIM2 (human) = PIM2 (human) (UniProt Q9P1W9)

Sequence of BMPR1B (human) (O00238 whole entry, looked up): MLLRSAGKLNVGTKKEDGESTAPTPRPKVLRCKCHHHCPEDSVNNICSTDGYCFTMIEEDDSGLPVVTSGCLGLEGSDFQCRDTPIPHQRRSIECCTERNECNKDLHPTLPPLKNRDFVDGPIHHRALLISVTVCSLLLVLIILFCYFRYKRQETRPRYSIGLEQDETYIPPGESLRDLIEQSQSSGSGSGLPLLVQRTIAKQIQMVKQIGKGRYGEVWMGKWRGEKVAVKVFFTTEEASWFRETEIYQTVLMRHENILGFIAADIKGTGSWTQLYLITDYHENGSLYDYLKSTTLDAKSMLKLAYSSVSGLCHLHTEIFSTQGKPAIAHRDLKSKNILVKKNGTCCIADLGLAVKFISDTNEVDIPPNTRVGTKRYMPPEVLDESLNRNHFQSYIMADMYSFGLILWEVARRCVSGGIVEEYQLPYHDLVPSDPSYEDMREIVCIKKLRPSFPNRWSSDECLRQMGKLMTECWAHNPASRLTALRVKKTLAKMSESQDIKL
Sequence of DAPK1 (human) (P53355 whole entry, looked up): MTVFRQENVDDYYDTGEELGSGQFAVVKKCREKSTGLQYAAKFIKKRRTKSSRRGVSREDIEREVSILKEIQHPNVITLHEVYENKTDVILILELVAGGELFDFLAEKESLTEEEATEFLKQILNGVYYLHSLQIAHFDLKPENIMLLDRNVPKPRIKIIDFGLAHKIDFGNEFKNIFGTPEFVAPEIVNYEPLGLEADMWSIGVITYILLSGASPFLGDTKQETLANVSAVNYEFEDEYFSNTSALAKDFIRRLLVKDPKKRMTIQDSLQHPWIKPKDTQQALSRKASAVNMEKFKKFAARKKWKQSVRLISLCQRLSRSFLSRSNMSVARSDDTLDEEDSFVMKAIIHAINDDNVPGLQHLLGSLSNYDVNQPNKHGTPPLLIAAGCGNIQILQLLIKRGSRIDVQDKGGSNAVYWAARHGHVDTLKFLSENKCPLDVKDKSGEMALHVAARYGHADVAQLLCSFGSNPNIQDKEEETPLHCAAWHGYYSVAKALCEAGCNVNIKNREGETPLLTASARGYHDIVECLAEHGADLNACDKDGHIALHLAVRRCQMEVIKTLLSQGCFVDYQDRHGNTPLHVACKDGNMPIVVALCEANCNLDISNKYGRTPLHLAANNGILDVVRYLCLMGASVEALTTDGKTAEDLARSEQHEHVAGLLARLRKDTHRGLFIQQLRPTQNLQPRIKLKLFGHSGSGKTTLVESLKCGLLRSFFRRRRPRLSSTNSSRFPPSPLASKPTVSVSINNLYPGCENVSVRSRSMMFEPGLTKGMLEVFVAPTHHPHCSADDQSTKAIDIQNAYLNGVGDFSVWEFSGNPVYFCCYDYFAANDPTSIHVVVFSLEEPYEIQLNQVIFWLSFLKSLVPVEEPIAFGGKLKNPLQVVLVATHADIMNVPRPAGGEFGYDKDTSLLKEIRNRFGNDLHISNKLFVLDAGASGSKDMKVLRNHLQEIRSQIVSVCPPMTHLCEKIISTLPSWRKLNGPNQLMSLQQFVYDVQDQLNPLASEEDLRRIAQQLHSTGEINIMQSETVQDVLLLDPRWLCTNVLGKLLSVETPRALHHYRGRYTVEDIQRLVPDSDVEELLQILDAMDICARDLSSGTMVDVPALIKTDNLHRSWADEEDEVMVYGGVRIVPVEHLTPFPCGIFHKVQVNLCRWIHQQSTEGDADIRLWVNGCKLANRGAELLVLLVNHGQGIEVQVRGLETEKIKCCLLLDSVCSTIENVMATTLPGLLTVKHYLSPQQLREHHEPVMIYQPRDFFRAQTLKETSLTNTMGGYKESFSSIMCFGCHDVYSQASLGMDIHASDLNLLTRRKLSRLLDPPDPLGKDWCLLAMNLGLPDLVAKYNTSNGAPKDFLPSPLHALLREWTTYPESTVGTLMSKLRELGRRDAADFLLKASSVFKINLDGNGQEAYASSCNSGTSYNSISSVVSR
Sequence of MELK (human) (Q14680 whole entry, looked up): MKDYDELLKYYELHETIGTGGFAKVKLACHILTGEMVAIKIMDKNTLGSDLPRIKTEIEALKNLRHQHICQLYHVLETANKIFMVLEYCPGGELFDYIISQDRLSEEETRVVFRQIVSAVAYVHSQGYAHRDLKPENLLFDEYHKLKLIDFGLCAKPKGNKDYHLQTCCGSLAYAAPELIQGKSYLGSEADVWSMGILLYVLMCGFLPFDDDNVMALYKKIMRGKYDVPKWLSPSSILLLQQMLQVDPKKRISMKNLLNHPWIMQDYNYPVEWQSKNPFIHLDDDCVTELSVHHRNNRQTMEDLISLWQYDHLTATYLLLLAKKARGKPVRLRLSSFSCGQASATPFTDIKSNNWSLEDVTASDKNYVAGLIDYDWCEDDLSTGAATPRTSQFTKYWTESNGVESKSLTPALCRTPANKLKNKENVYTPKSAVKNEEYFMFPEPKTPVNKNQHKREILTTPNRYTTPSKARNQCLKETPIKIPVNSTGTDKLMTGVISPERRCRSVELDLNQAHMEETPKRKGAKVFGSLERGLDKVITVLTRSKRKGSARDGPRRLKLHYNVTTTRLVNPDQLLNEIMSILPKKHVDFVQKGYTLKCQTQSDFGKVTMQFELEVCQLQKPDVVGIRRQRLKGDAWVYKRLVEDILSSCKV

Compound `COc1cc(N2CCN(C)CC2)ccc1Nc1ncc2c(n1)Nc1ccccc1NC2=O` has a kinase still bound, per cent of control (DAPK1 (human)) of 64%, a kinase still bound, per cent of control (BMPR1B (human)) of 19% and a kinase still bound, per cent of control (TNIK (human)) of 82%. The kinase still bound, per cent of control (MKNK2 (human)) was 69%, the kinase still bound, per cent of control (ACVR1 (human)) was 37% and the kinase still bound, per cent of control (MAP4K4 (human)) was 86%. The kinase still bound, per cent of control (MELK (human)) was 64%, the kinase still bound, per cent of control (CAMKK1 (human)) was 40% and the kinase still bound, per cent of control (PRKD3 (human)) was 66%. It also gave a kinase still bound, per cent of control (GSK3A (human)) of 100%, a kinase still bound, per cent of control (AURKB (human)) of 59% and a kinase still bound, per cent of control [1] of 63%. For the same compound, the kinase still bound, per cent of control (MAP3K5 (human)) was 100%, the kinase still bound, per cent of control (STK16 (human)) was 100% and the kinase still bound, per cent of control (PLK4 (human)) was 2.1%. For the same compound, the kinase still bound, per cent of control (RPS6KA1 KD2 (human)) was 43%, the kinase still bound, per cent of control (STK24 (human)) was 95% and the kinase still bound, per cent of control (RPS6KA5 KD2 (human)) was 92%. The kinase still bound, per cent of control (STK17B (human)) was 93%, the kinase still bound, per cent of control (RIOK3 (human)) was 68% and the kinase still bound, per cent of control [2] was 12%. For the same compound, the kinase still bound, per cent of control (RIOK2 (human)) was 43%, the kinase still bound, per cent of control (SRPK3 (human)) was 76% and the kinase still bound, per cent of control (CLK1 (human)) was 100%. It also gave a kinase still bound, per cent of control [3] of 75%, a kinase still bound, per cent of control (CLK4 (human)) of 94% and a kinase still bound, per cent of control (CAMKK2 (human)) of 100%. For the same compound, the kinase still bound, per cent of control (CSNK1G3 (human)) was 96%, the kinase still bound, per cent of control (PIK3CG (human)) was 100% and the kinase still bound, per cent of control [4] was 48%. It also gave a kinase still bound, per cent of control (FLT3 (human)) of 69%, a kinase still bound, per cent of control (MYLK3 (human)) of 100% and a kinase still bound, per cent of control (CIT (human)) of 47%. For the same compound, the kinase still bound, per cent of control (RIPK4 (human)) was 100%, the kinase still bound, per cent of control (CSNK2A2 (human)) was 100% and the kinase still bound, per cent of control (DYRK1B (human)) was 79%. The kinase still bound, per cent of control (BRSK2 (human)) was 100%, the kinase still bound, per cent of control (MAP3K7 (human)) was 96% and the kinase still bound, per cent of control (KIT (human)) was 48%. For the same compound, the kinase still bound, per cent of control (GAK (human)) was 5.8%, the kinase still bound, per cent of control (CSNK1D (human)) was 42% and the kinase still bound, per cent of control (PIM2 (human)) was 100%.
For `CN1CCN(c2ccc(C(=O)Nc3ncc4c(n3)N(C)c3ccccc3C(=O)N4C)cc2)CC1`, the kinase still bound, per cent of control (DAPK1 (human)) was 84%, the kinase still bound, per cent of control (BMPR1B (human)) was 100% and the kinase still bound, per cent of control (TNIK (human)) was 100%. It also gave a kinase still bound, per cent of control (MKNK2 (human)) of 66%, a kinase still bound, per cent of control (ACVR1 (human)) of 91% and a kinase still bound, per cent of control (MAP4K4 (human)) of 100%. For the same compound, the kinase still bound, per cent of control (MELK (human)) was 99%, the kinase still bound, per cent of control (CAMKK1 (human)) was 100% and the kinase still bound, per cent of control (PRKD3 (human)) was 90%. For the same compound, the kinase still bound, per cent of control (GSK3A (human)) was 100%, the kinase still bound, per cent of control (AURKB (human)) was 74% and the kinase still bound, per cent of control [1] was 100%. The kinase still bound, per cent of control (MAP3K5 (human)) was 94%, the kinase still bound, per cent of control (STK16 (human)) was 85% and the kinase still bound, per cent of control (PLK4 (human)) was 84%. For the same compound, the kinase still bound, per cent of control (RPS6KA1 KD2 (human)) was 94%, the kinase still bound, per cent of control (STK24 (human)) was 100% and the kinase still bound, per cent of control (RPS6KA5 KD2 (human)) was 100%. It also gave a kinase still bound, per cent of control (STK17B (human)) of 100%, a kinase still bound, per cent of control (RIOK3 (human)) of 71% and a kinase still bound, per cent of control [2] of 100%. The kinase still bound, per cent of control (RIOK2 (human)) was 85%, the kinase still bound, per cent of control (SRPK3 (human)) was 100% and the kinase still bound, per cent of control (CLK1 (human)) was 100%. The kinase still bound, per cent of control [3] was 100%, the kinase still bound, per cent of control (CLK4 (human)) was 100% and the kinase still bound, per cent of control (CAMKK2 (human)) was 97%. For the same compound, the kinase still bound, per cent of control (CSNK1G3 (human)) was 100%, the kinase still bound, per cent of control (PIK3CG (human)) was 70% and the kinase still bound, per cent of control [4] was 95%. It also gave a kinase still bound, per cent of control (FLT3 (human)) of 100%, a kinase still bound, per cent of control (MYLK3 (human)) of 100% and a kinase still bound, per cent of control (CIT (human)) of 100%. For the same compound, the kinase still bound, per cent of control (RIPK4 (human)) was 96%, the kinase still bound, per cent of control (CSNK2A2 (human)) was 78% and the kinase still bound, per cent of control (DYRK1B (human)) was 100%. The kinase still bound, per cent of control (BRSK2 (human)) was 100%, the kinase still bound, per cent of control (MAP3K7 (human)) was 89% and the kinase still bound, per cent of control (KIT (human)) was 74%. The kinase still bound, per cent of control (GAK (human)) was 100%, the kinase still bound, per cent of control (CSNK1D (human)) was 85% and the kinase still bound, per cent of control (PIM2 (human)) was 100%.
